Measurements: patent publication US20040053847A1, “Diastereomeric peptitdes and pharmaceutical compositions comprising them” (priority 2000, published 2004)
In brackets after ≈: the same amount, converted by molar mass. Read-outs that look alike come from different tables or passages of the source. Square brackets hold non-standard residues; d marks the D form. Peptide text beside a SMILES is read from it.

Experiments:
[1] = system: methicilin-resistant Staphylococcus aureus (MRSA) ATCC 700698; type: cell-based
Procedure: (§1) The antibacterial activity of the peptides was examined in sterile 96-well plates (Nunc F96 microtiter plates) in a final volume of 100 μl as follows: Aliquots (50 μl) of a suspension containing bacteria at concentration of 1×10^6 Colony-Forming Units (CFU)/ml in culture LB (Lauria broth) medium were added to 50 μl of water containing the peptide in serial 2-fold dilutions in water. Inhibition of growth was determined by measuring the absorbance at 600 nm with a Microplate autoreader E1309 (Bio-tek Instruments), after an incubation time of 18-20 h at 37° C. Antibacterial activities were expressed as the minimal inhibitory concentration (MIC), the concentration at which 100% inhibition of growth was observed after 18-20 h of incubation. The bacteria used were: Escherichia coli ATCC 25922, Acinetobacter baumannii ATCC 19606, Pseudomonas aeruginosa ATCC 27853, Staphylococcus aureus ATCC 6538P, Enterococcus faecalis ATCC 29212, Enterobacter cloacae ATCC 49141. The antibacterial activity of peptides 2 and 6 was also examined against resistant bacteria: methicilin-resistant Staphylococcus aureus ([…]) ATCC 700698 and vancomycin-resistant Enterococcus faecium (VRE) ATCC 700221.

[2] = system: vancomycin-resistant Enterococcus faecium (VRE) ATCC 700221; type: cell-based
Procedure: as §1

[3] = system: Aspergillus niger ATCC 9642; type: cell-based
Procedure: (§2) The antifungal activity of the diastereomers was examined in sterile 96-well plates (Nunc F96 microtiter plates) in a final volume of 200 μL as follows: 100 μl of a suspension containing fungi at concentration of 1×10^4 Colony-Forming Units (CFU)/ml in culture medium (RPMI 1640, 0.165 M MOPS pH 7.0, with L-glutamine, without NaHCO3) was added to 100 μl of water containing the peptide in serial 2-fold dilutions in water. The fungi were incubated in the presence of the diastereomeric peptides for 24-48 h at 35° C. in a Binder KB115 incubator under agitation. Growth inhibition was determined by measuring the absorbance at 620 nm with a Microplate autoreader E1309 (Bio-tek Instruments). Antifungal activity is expressed as the minimal inhibitory concentration (MIC), the concentration at which 100% inhibition of growth was observed after the incubation time mentioned above. The fungi used were: Aspergillus niger ATCC 9642, Candida albicans ATCC 10231 and Cryptococcus neoformans ATCC 66031.

[4] = system: Candida albicans ATCC 10231; type: cell-based
Procedure: as §2

[5] = system: Cryptococcus neoformans ATCC 66031; type: cell-based
Procedure: as §2

[6] = target: pepsin (from porcine stomach mucosa) (Sus scrofa, UniProt P00791); assay: in vitro; conditions: pig, pH 7.3
Chain of pepsin (from porcine stomach mucosa) (P00791 60-385): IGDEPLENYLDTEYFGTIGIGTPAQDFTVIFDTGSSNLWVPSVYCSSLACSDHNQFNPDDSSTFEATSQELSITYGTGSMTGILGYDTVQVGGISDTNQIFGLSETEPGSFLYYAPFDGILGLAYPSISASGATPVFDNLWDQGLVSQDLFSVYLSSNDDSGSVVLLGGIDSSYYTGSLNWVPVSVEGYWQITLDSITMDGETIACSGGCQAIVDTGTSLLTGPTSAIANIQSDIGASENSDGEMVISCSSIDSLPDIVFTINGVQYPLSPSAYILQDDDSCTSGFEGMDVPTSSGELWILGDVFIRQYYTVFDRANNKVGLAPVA
Procedure: (§3) In order to reach their target, the diastereomers have to withstand proteolytic digestion by proteases which may occur during the time of their administration site till they reach the target site. The susceptibility of the diastereomer 2 of the invention Is to proteolytic digestion by pepsin (from porcine stomach mucosa, Sigma), trypsin (from bovine pancreas, Sigma), and elastase (from human leukocytes, Sigma) was assessed by reverse-phase HPLC. As a control we used the native, all L-amino acid antimicrobial peptide cecropin B. Equal amounts of the peptides were dissolved in PBS (35 mM phosphate buffer/0.15 M NaCl, pH 7.3) at final concentration of 140 μM to which 25 μM of protease were added. The samples were incubated under agitation for 30 min at 37° C. After the addition of the appropriate protease inhibitor to stop the reaction, aliquots were injected to C18 column and the amounts of the intact diastereomers were evaluated using their absorbance at 215 nm.

[7] = target: trypsin (from bovine pancreas) (Bos taurus, UniProt P00760); assay: in vitro; conditions: pH 7.3
Chain of trypsin (from bovine pancreas) (P00760 24-246): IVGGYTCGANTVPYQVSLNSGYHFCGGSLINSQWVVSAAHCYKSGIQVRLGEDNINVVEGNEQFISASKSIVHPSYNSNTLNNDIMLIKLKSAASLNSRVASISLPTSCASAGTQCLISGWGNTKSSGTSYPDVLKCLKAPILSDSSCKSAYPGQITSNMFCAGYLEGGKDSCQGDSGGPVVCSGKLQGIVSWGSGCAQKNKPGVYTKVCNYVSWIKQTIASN
Procedure: as §3

[8] = target: T1, elastase (from human leukocytes) (Homo sapiens, UniProt P08246); assay: Proteolytic digestion assessed by reverse-phase HPLC; type: in vitro ADME
T1 construct: elastase (from human leukocytes, Sigma); purchased Sigma; host or cells: human leukocytes (cell-derived)
T1 sequence (P08246 30-247 limits assumed): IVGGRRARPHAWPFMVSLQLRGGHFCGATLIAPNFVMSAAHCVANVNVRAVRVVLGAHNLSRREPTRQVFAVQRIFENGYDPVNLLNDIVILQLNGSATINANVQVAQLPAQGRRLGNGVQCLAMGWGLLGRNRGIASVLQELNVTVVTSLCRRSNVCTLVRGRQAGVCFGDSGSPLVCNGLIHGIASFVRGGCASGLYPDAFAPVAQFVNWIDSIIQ

[9] = system: B16 F10 mouse melanoma cell line; assay: In vitro anticancer activity, Trypan blue cell viability, LC50
Procedure: (§4) The anticancer activity of the diastereomers 1, 2, 8, 9 and 10 was examined against B16 F10 mouse melanoma cell line. Melanoma cells were grown in RPMI-1640 medium supplemented with 10% fetal calf serum and antibiotics, at 37° C., in humidified atmosphere at 5% CO2 and 95% air. In addition, the cell-selectivity of the diastereomeric peptides was studied by examining their effect on NIH-3T3 normal fibroblasts cell line. NIH-3T3 mouse fibroblasts cells were grown in DMEM medium supplemented with 10% bovine calf serum and antibiotics under the same conditions as described above for B16 F10 mouse melanoma cells. Melanoma cells (2×10^5 cells ml^−1) or NIH-3T3 cells (2.5×10^5 cells ml^−1) were seeded in tissue culture plates (3.5 cm). After 48 h, cells were washed thrice with the corresponding medium. Then the cells were incubated at 37° C. in medium (without serum and antibiotics) in the presence of the tested diastereomeric peptides dissolved in PBS, at different concentrations. […] Following 24 h of incubation, the cells were harvested with trypsin (0.25%)-EDTA (0.05%) and centrifuiged for 10 min at 270×g. The precipitated cells were suspended in the corresponding medium and counted in a hemocytometer (Neubauer). Cell viability was determined by Trypan blue dye exclusion.

[10] = Cell selectivity, Trypan blue cell viability, LC50; type: cell-based, mouse; conditions: 50% cell mortality after 24 h incubation, medium without serum, read-out: Lethal Concentration (LC50), NIH-3T3 fibroblasts
Mycoplasma pneumoniae = type: cell-based; conditions: 1 h
Procedure: In order to examine the activity of the diastereomers of the invention against mycoplasma, 500 μl of Mycoplasma pneumoniae cells were introduced into a cell culture flask containing 50 ml of SP-4 growth media (Jacob et al., 1985). The cells were grown at 37° C. for 3-4 days. Before the assay, the mycoplasma cells were washed 3 times with serum-free medium (without fetal calf serum) and then harvested into 5 ml of the same medium. The cells' concentration was adjusted to approximately 1×10^6 cells ml^−1. Thereafter, 150 μl of either diastereomer 1 or 2 in phosphate-buffered saline (PBS) were added to 150 μl mycoplasma cells. The mixture was incubated for 1 hour at room temperature. As a control, cells were incubated with PBS alone. At the end of the incubation period, 150 μl of the mixture were inoculated into tissue culture flasks (in duplicate) containing 15 ml SP-4 media. After 3-4 days, the mycoplasma viability was determined by counting the number of cells grown in each flask.

[11] = In vitro anticancer activity, Trypan blue cell viability, LC50
Procedure: as §4

Structure (SMILES) | Activity against resistant bacteria MRSA [1] | Activity against resistant bacteria VRE [2] | MIC, A. niger ATCC 9642 [3] [µg/mL] | MIC, C. albicans ATCC 10231 [4] [µg/mL] | MIC, C. neoformans ATCC 66031 [5] [µg/mL] | metabolised at 0.5 h, 140 μM [6] [%] | metabolised at 0.5 h, 140 μM [7] [%] | metabolised at 0.5 h, 140 μM ([8]; elastase from human leukocytes, 140 μM peptide, 25 μM protease, 30 min at 37° C., PBS pH 7.3, read-out: Proteolytic digestion, Elastase) [%] | Lethal Concentration (LC50), B16-F10 melanoma ([9]; 50% cell mortality after 24 h incubation, medium without serum) [µg/mL] | CC50 at 24 h ([10]; mouse, NIH-3T3 fibroblasts) [µg/mL] | metabolised at 0.5 h, 140 μM ([8]; isolated enzyme elastase, pH 7.3) [%] | MIC against Mycoplasma (Mycoplasma pneumoniae) [µg/mL] | Activity against A. niger [3] | Activity against C. albicans [4] | CC50 [11] [µg/mL] | Selectivity between melanoma and NIH-3T3 cell lines ([9]; B16 F10 vs NIH-3T3) | CC50 [10] [µg/mL]
CC(C)C[C@H](NC(=O)[C@H](CC(C)C)NC(=O)[C@@H](CCCCN)NC(=O)[C@@H](CCCCN)NC(=O)[C@H](CC(C)C)NC(=O)[C@@H](CC(C)C)NC(=O)[C@H](CCCNC(=N)N)NC(=O)[C@H](CC(C)C)NC(=O)[C@@H](CC(C)C)NC(=O)[C@H](CC(C)C)NC(=O)[C@@H](N)CCCCN)C(=O)N[C@@H](CCCNC(=N)N)C(=O)N[C@H](CC(C)C)C(=O)N[C@@H](CC(C)C)C(=O)N[C@@H](CCCCN)C(N)=O [Peptide 6, [D]-L^3,6,13,K^8,9-K4R2L9] (H-KL[dL]LR[dL]L[dK][dK]LLR[dL]LK-NH2; N-terminus assumed) | highly active | highly active | 200 (≈ 107 µM) | 150 (≈ 80.6 µM) | 1.5 (≈ 0.806 µM) | – | – | – | – | – | – | – | – | – | – | – | –
CC[C@H](C)[C@H](NC(=O)CNC(=O)[C@H](CC(N)=O)NC(=O)[C@H](CCCNC(=N)N)NC(=O)[C@@H](NC(=O)[C@H](CC(N)=O)NC(=O)[C@H](CCCNC(=N)N)NC(=O)CNC(=O)[C@H](CCSC)NC(=O)[C@H](CCCCN)NC(=O)[C@H](CCC(=O)O)NC(=O)[C@@H](NC(=O)[C@H](CCCCN)NC(=O)[C@H](CCCCN)NC(=O)[C@H](Cc1ccccc1)NC(=O)[C@@H](NC(=O)[C@H](CCCCN)NC(=O)[C@H](Cc1c[nH]c2ccccc12)NC(=O)[C@@H](N)CCCCN)C(C)C)[C@@H](C)CC)[C@@H](C)CC)C(=O)N[C@H](C(=O)N[C@@H](CCCCN)C(=O)N[C@@H](C)C(=O)NCC(=O)N1CCC[C@H]1C(=O)N[C@@H](C)C(=O)N[C@H](C(=O)N[C@@H](C)C(=O)N[C@H](C(=O)N[C@@H](CC(C)C)C(=O)NCC(=O)N[C@@H](CCC(=O)O)C(=O)N[C@@H](C)C(=O)N[C@@H](CCCCN)C(=O)N[C@@H](C)C(=O)N[C@@H](CC(C)C)C(N)=O)C(C)C)[C@@H](C)CC)C(C)C [Cecropin B, cecropin B, reference compound] (H-KWKVFKKIEKMGRNIRNGIVKAGPAIAVLGEAKAL-NH2) | – | – | – | – | – | 100 | 100 | 100 | – | – | – | – | – | – | – | – | –
CC(C)C[C@H](NC(=O)[C@H](CCCCN)NC(=O)[C@H](CC(C)C)NC(=O)[C@@H](CC(C)C)NC(=O)[C@H](CC(C)C)NC(=O)[C@@H](N)CCCCN)C(=O)N[C@@H](CC(C)C)C(=O)N[C@H](CCCCN)C(=O)N[C@H](CCCCN)C(=O)N[C@@H](CC(C)C)C(=O)N[C@@H](CC(C)C)C(=O)N[C@@H](CCCCN)C(=O)N[C@H](CC(C)C)C(=O)N[C@@H](CC(C)C)C(=O)N[C@@H](CCCCN)C(N)=O [Peptide 2, [D]-L^3,13,K^8,9-K6L9] (H-KL[dL]LKLL[dK][dK]LLK[dL]LK-NH2) | – | – | 50 (≈ 27.7 µM) | 100 (≈ 55.4 µM) | 1.4 (≈ 0.776 µM) | 10 | 32 | – | 9 | 30 (≈ 16.6 µM) | 6 | 12.5 (≈ 6.93 µM) | – | – | – | – | –
CC(C)C[C@H](NC(=O)[C@H](CCCCN)NC(=O)[C@@H](CC(C)C)NC(=O)[C@@H](CC(C)C)NC(=O)[C@H](CC(C)C)NC(=O)[C@@H](N)CCCCN)C(=O)N[C@@H](CC(C)C)C(=O)N[C@H](CC(C)C)C(=O)N[C@@H](CCCCN)C(=O)N[C@H](CC(C)C)C(=O)N[C@@H](CC(C)C)C(=O)N[C@@H](CCCCN)C(N)=O [Peptide 1, [D]-L^3,4,8,10-K4L8, reference compound] (H-KL[dL][dL]KLL[dL]K[dL]LK-NH2; N-terminus assumed) | – | – | >200 | >200 | 4.7 (≈ 3.28 µM) | – | – | – | – | – | – | 50 (≈ 34.8 µM) | inactive | inactive | 90 (≈ 62.7 µM) | active against both cell lines at similar concentration | 100 (≈ 69.7 µM)
